We go through eleven molecules from article PMC3940698 (PLoS ONE, 2014).

Read-outs that look alike come from different tables or passages of the source.

The target of data set [1] is T1, CYP2C9 (Homo sapiens, UniProt P11712).
T1 construct: purchased Life Technologies (and Panvera), Invitrogen
Put plainly: CYP2C9 baculosomes, diclofenac hydroxylation, inhibition.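 For all read-outs here: reactions run at 27 °C in 100 mM potassium phosphate, pH 7.4, in a 250 µl volume, with hydroxylated product quantified from HPLC peak areas.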 It counts as biochemical. Particulars: for Localized Ki, Chance equation / Localized Ki, Cheng-Prusoff equation / Ki / Global Ki, linear regression / Global Ki, non-linear regression: CYP2C9+Diclof.

Data set [2] addresses T2, CYP2E1 (Homo sapiens, UniProt P05181). Put plainly: CYP2E1 baculosomes, pNP reaction. Particulars: for Ki, Cheng-Prusoff method (in words): pNP reactions, CYP2E1 baculosomes, inhibitor 10 nM.
Data set [3] has as its system rat liver microsomes (mixed CYPs). As to the kind of experiment: Rat liver microsomes, diclofenac hydroxylation, inhibition. It counts as biochemical. Particulars: for Global Ki, non-linear regression: KM taken as 10 µM. From the text: In some reactions, another method was used.
For orientation: Liver microsomes are a subcellular fraction often used to study metabolism.

For data set [4], the system named is various CYPs tested (CYP2C9, CYP3A4, CYP2D6, CYP2E1). As to the kind of experiment: Ki of BzBr for the various CYPs tested (baculosomes, Diclof or pNP). The following applies: equivalent substrate-BzBr concentrations.
The target in data set [5] is T1, CYP2C9. Particulars: ref [4]-[6]; cited from earlier work.
Data set [6] addresses T2, CYP2E1.
In data set [7] the target is T3, CYP2D6 (Homo sapiens, UniProt P10635).
T3 construct: host or cells: baculosomes
T3 sequence (P10635 whole entry): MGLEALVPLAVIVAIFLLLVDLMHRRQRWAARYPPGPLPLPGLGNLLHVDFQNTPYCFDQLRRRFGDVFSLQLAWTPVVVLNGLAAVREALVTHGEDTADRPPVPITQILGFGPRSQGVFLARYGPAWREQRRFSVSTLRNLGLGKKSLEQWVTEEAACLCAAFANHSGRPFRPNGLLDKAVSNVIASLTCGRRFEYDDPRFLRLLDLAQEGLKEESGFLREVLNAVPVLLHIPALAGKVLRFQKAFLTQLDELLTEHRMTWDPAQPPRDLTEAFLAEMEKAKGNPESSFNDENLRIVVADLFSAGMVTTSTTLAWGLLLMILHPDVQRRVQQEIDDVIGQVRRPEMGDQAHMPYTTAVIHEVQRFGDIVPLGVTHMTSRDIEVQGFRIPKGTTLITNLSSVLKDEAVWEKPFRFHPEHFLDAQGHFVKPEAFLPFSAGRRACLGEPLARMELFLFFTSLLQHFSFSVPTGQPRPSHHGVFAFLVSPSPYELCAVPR
Put plainly: CYP2D6 baculosomes, diclofenac or pNP product formation. It counts as biochemical. Particulars: CYP2D6 baculosomes 20 nM, inhibitor equivalent amount, 30 minutes.

For data set [8], the target named is T4, CYP3A4 (Homo sapiens, UniProt P08684).
T4 construct: host or cells: baculosomes
T4 sequence (P08684 2-503 limits assumed): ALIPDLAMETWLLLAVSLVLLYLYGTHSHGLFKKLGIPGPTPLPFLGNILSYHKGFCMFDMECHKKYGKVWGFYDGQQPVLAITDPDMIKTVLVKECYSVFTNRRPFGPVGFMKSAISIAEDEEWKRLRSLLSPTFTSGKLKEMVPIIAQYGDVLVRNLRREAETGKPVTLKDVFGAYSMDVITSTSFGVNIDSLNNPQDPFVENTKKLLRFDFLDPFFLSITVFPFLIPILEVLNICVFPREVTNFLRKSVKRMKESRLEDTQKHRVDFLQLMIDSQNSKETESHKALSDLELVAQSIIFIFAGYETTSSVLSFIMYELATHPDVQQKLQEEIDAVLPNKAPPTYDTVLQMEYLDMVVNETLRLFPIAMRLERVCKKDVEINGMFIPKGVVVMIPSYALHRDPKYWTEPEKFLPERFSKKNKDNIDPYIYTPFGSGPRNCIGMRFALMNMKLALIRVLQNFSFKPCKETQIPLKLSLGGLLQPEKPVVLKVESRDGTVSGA
Put plainly: CYP3A4 baculosomes, diclofenac or pNP product formation. It counts as biochemical. Particulars: CYP3A4 baculosomes 20 nM, inhibitor equivalent amount, 30 minutes.

Where [9] appears, read: [I] 1 µM, read-out: Localized Ki, Cheng-Prusoff equation.
The mark [10] stands for this setting: [I] 100 µM, read-out: Localized Ki, Cheng-Prusoff equation.
Setting [11] is: Microsomes+Diclof, 0.5 µM CYP, 200 µM diclofenac, 400 µM NADPH.
Where [12] appears, read: [I] 0.01 µM, read-out: Localized Ki, Chance equation.
Setting [13] is: [I] 0.01 µM, read-out: Localized Ki, Cheng-Prusoff equation.
Where [14] appears, read: [I] 1 µM, read-out: Localized Ki, Chance equation.
[15] abbreviates: 10 nM CYP, 100 µM diclofenac, 200 µM NADPH.
Where [16] appears, read: KM taken as 10 µM, 10 nM CYP, 100 µM diclofenac, 200 µM NADPH.

T1 sequence (P11712 whole entry): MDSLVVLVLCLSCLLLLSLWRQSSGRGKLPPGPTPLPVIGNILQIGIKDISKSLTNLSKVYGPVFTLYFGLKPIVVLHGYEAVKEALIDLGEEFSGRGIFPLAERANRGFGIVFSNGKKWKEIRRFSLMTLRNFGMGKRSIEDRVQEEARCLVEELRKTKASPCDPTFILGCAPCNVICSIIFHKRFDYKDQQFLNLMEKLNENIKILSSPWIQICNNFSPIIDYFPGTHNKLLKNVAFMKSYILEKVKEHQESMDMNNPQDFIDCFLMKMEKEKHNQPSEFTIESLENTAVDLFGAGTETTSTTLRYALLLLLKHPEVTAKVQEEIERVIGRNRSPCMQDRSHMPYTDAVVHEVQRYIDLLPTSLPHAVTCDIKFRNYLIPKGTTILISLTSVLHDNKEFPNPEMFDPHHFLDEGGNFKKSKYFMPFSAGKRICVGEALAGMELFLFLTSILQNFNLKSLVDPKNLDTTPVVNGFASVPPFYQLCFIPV
T2 sequence (P05181 whole entry): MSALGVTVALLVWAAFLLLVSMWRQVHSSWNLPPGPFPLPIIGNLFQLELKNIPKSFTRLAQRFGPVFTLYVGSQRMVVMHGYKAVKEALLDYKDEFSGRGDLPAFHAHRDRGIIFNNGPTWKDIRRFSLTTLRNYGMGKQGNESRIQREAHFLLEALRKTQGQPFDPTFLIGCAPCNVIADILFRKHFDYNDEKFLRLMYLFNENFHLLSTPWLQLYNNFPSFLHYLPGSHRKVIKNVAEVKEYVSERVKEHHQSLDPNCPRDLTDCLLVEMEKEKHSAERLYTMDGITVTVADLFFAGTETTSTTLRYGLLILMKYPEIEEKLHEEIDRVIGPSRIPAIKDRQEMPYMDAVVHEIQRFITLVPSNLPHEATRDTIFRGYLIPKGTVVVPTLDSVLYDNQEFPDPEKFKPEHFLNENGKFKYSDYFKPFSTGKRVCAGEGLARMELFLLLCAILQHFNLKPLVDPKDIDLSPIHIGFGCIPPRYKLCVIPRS

Regarding `COc1cc(Br)c(O)c(Br)c1` [DBMP], in data set [1] ([I] 0.01 µM), the “Localized Ki, Chance equation” value is “-” and the “Localized Ki, Cheng-Prusoff equation” value is “-”. Moreover, the Ki – broadly, a measure of affinity in units of concentration, obtained from inhibition or displacement – in data set [1] (setting [9]) is 306 nM. Besides, the inhibition constant Ki in data set [1] (setting [10]) stood at 95400 nM. Moreover, the “Ki, Cheng-Prusoff method (in words)” value in data set [2] is on record as “low nM ranges”.
Regarding `Oc1c(Br)cccc1Br` [DBP], the “Inhibition at 100 µM” value in data set [3] (mixed microsomes, 100 µM) was “failed to give any inhibition”. The Ki in data set [1] (setting [9]) worked out at 2610 nM. Further, in data set [1] ([I] 100 µM), the “Localized Ki, Chance equation” value was “-” and the “Localized Ki, Cheng-Prusoff equation” value is given as “-”. The “Ki at 10 nM inhibitor (in words)” value in data set [1] (CYP2C9 baculosome system, 10 nM) is listed as “nanomolar”. In addition, the “Ki at 1 µM inhibitor (in words)” value in data set [1] (CYP2C9 baculosome system, 1 µM) was “micromolar”. Further, the “Inhibition at 100 µM” value in data set [1] (CYP2C9 baculosome system, 100 µM) is reported as “failed to give any inhibition”. The “Ki, Cheng-Prusoff method (in words)” value in data set [2] is listed as “low nM ranges”.
Regarding `CCc1oc2ccccc2c1C(=O)c1cc(Br)c(O)c(Br)c1` [BzBr, benzbromarone], in data set [3] (setting [11]), the “Global Ki, linear regression” value is “-” and the “Global Ki, non-linear regression” value is listed as “-”. Further, the “Ki, Cheng-Prusoff method (in words)” value in data set [2] was “low nM ranges”. For the same molecule, the “Ki derived from calculations (in words)” value in data set [4] is “Submicromolar”.
Consider `CCc1oc2ccccc2c1C(=O)c1cc(I)c(O)c(I)c1` [BzIr, benziodarone], for which the Ki was not above 1 nM in data set [5]; 30900 nM in data set [1] (10 nM CYP, 100 µM diclofenac, 200 µM NADPH, read-out: Global Ki, linear regression); 2.8 nM in data set [1] (KM taken as 10 µM, 10 nM CYP, 100 µM diclofenac, 200 µM NADPH, read-out: Global Ki, non-linear regression); 243 nM in data set [1] (setting [12]); 2.6 nM in data set [1] (setting [13]); 995 nM in data set [1] (setting [14]). Besides, the Ki in data set [1] (setting [9]) is 9.1 nM; in data set [1] ([I] 100 µM, read-out: Localized Ki, Chance equation), 190000 nM; in data set [1] (setting [10]), 650 nM. In addition, the “Global Ki, linear regression” value in data set [3] (setting [11]) is “-”. In addition, the “Global Ki, non-linear regression” value in data set [3] (setting [11]) was “-”. Also, in data set [6], the “Ki, Cheng-Prusoff method (in words)” value was “low nM ranges”.
With `NC(Cc1cc(I)c(O)c(I)c1)C(=O)O` (centres unmarked) [DIT], the “Global Ki, linear regression” value in data set [1] (setting [15]) was “-”. Also, the “Global Ki, non-linear regression” value in data set [1] (setting [16]) is “-”. The Ki in data set [1] (setting [12]) was found to be 5.5 nM; in data set [1] (setting [13]) it was 0.7 nM; in data set [1] (setting [10]), 42600 nM. Also, the “Localized Ki, Chance equation” value in data set [1] ([I] 1 µM) is “-”. Besides, the “Localized Ki, Cheng-Prusoff equation” value in data set [1] ([I] 1 µM) was “-”.
vitamin E [Vit. E]: the “Ki (in words)” value in data set [1] (baculosome reaction setup) is on record as “∼nM”.
For `CCc1oc2ccccc2c1C(=O)c1ccc(OC)cc1` [MeOBzr], the Ki in data set [3] (Microsomes+Diclof, 0.5 µM CYP, 200 µM diclofenac, 400 µM NADPH, read-out: Global Ki, linear regression) was 242 nM. Further, in data set [1] (setting [15]), the “Global Ki, linear regression” value was “-”. Further, in data set [1] (setting [16]), the “Global Ki, non-linear regression” value is given as “-”.
For the molecule `O=C(O)c1cc(Br)c(O)c(Br)c1` [DBHB], the Ki worked out at 6.4 nM in data set [1] (setting [12]), 97700 nM in data set [1] (setting [14]), 89.9 nM in data set [1] (setting [9]) and 8680 nM in data set [1] (setting [10]). In addition, in data set [1] (CYP2C9 baculosomes), the “Ki via non-linear regression (in words)” value is recorded as “sub-nanomolar”. For the same molecule, the “Ki via linear regression analysis (in words)” value in data set [1] (CYP2C9 baculosomes, same experimental data) is given as “supra-millimolar”. Also, in data set [2], the “Ki, Cheng-Prusoff method (in words)” value is “low nM ranges”.
Benzothiadiazole: the “Relative percentage of hydroxylated product formed vs positive control” value in data set [7] (80 µM Diclof) is 0.3%; in data set [7] (80 µM pNP) it was “∼15%”; in data set [8] (80 µM Diclof) it was 17%; in data set [8] (80 µM pNP) it was “∼15%”; in data set [1] (CYP2C9 baculosomes 20 nM, 80 µM Diclof, inhibitor equivalent amount, 250 µM NADPH, 30 minutes) it was 90.1%; in data set [2] (CYP2E1 baculosomes 20 nM, 80 µM pNP, inhibitor equivalent amount, 30 minutes) it was 15%.
As to `CCc1oc2ccccc2c1C(=O)c1cc(Br)c(OC)c(Br)c1` [MeOBzBr], the Ki in data set [3] (read-out: Ki at 100 µM inhibitor, microsome setups, 100 µM inhibitor) is 3700 nM.
Consider `CCc1oc2ccccc2c1C(=O)c1cc(I)c(OC)c(I)c1` [MeOBzIr], for which, in data set [1] (setting [15]), the “Global Ki, linear regression” value is on record as “-”. In addition, the “Global Ki, non-linear regression” value in data set [1] (setting [16]) is reported as “-”.
